From patent US20190337971A1, “PANTETHEINE DERIVATIVES FOR THE TREATMENT OF NEUROLOGIC DISORDERS” (Retrophin, Inc., priority 2016, published 2019)

Experiments:
[1] = Stability of compounds in human hepatocytes; format: in vitro ADME; conditions: cryopreserved human hepatocytes in suspension, 37° C., 0-240 min
Description: (§1) Stability in hepatocytes for select compounds disclosed in the application was evaluated in two species (mouse and human) according to the following procedure. Compounds and positive control samples were dissolved in 100% DMSO at 5 mM. Cryopreserved hepatocytes were thawed and resuspended in Hepatocyte Basal Medium (HBM-Lonza CC-3199) supplemented with CC-4182 (complete hepatocyte culture medium). Test compounds were diluted into cell suspension (1 million cells/ml) from the stock solutions to have a test compound concentration of 5 μM (0.1% DMSO). Incubation was performed in 24-well plates, at 37° C. in a DUBNOFF water bath, under low shaking. Each compound was tested at 6 time points, in duplicates (0, 15, 30, 60, 120, and 240 min). At each time point, an aliquot of 120 μl was taken and transferred to a 96-well deep plate. The reaction was stopped with the addition of one volume of 100% acetonitrile plus 0.1% formic acid and the appropriate internal standard. Samples then were centrifuged at 1100×g for 30 min at +4° C. and supernatants were transferred to a new 96-deepwell plate. Samples were evaporated under N2 and reconstituted in H2O/ACN 0.1% formic Acid (98:2). Analysis was performed without a calibration curve (Acquity UPLC-Waters; Sciex API4000). Time 0 was obtained adding acetonitrile before addition of the test compound. Stability was determined based on analysis of disappearance of the compounds as a function of incubation time. Quantification of test compounds was measured as a peak area relative to an internal standard. The elimination constant, k, is calculated by plotting mean disappearance values on a semi-logarithmic scale and fitting with a best fit linear regression. The half-life (t1/2) expressed in hours was derived using Equation 1:
(§2) t1/2=ln 2/(−k). Equation 1: […]

[2] = Stability of compounds in mouse hepatocytes; format: in vitro ADME; conditions: cryopreserved mouse hepatocytes in suspension, 37° C., 0-240 min
Description: as §1, §2

[3] = Stability in human plasma; format: in vitro ADME; conditions: 37° C., up to 60 min
Description: The stability of selected compounds in human plasma was evaluated according to the following protocol. Compounds and positive control samples were dissolved in 100% DMSO at 3 mM. To investigate the stability of the test compounds in plasma, samples were made by diluting test compounds into plasma from the stock solutions to obtain a test compound concentration of 3 μM (0.1% DMSO). Before addition of a test compound, 990 μl of plasma were preincubated at 37° C. for 5 min in eppendorf. After addition of a test compound, 70 μl for each time point were transferred to a 96-deepwell plate, previously warmed at 37° C. in a DUBNOFF water bath. Each compound was tested at five time points, in duplicate (10, 20, 30, 40 and 60 min). At each time point, an aliquot of 50 μl was taken and transferred to a new 96-deepwell plate, and the reaction was stopped with 200 μl of 100% acetonitrile containing 0.1% formic acid and the appropriate internal standard. Then samples were centrifuged at 1100×g for 30 min at +4° C. and supernatants were transferred to a new 96-deepwell plate. Samples were evaporated under N2 and reconstituted in H2O/ACN 0.1% formic Acid (98:2). Analysis was performed without a calibration curve (Acquity UPLC-Waters; SciexAPI4000). Time 0 was obtained by adding acetonitrile before addition of the test compound.
(§3) Stability was determined based on analysis of disappearance of the compounds as a function of incubation time. Quantification of test compounds was measured as a peak area relative to an internal standard. The elimination constant k and half-life (t1/2) were determined as described above in Example 7.

PANK2−/− IMR32 cells = assay: Coenzyme A assay in PANK2 silenced cells (LC-MS quantification of free CoA); format: cell-based, human; conditions: Homo sapiens, IMR-32; compound concentration 50 uM; fold increase in CoA levels relative to controls; treated twice, 24 h + 24 h
Description: A human neuroblastoma IMR32 cell line (ATCC) with stably PANK2 silencing was obtained by lentiviral-delivered small hairpin RNA and cultured in MEM (Invitrogen) supplemented with 10% fetal bovine serum, 2 mM glutamine, 1% penicillin-streptomycin, 1 mM sodium pyruvate, 1 mM non-essential amino acids, and 1.5 g/l sodium bicarbonate.
A non-silencing shRNA construct (scrambled shRNA) and an empty vector expressing GFP alone were used as negative controls. The GFP tag subcloned into the lentiviral vectors was used to monitor the transfection efficiency.
Three days after transduction medium was removed and replaced with fresh medium containing […] puromycin. […] The level of PANK2 expression in selected clones was assessed by Western Blot analysis.
To quantify CoA, PANK2−/− IMR32 cells were plated on 12-well culture plates (Corning) at a density of 0.2×10^6 cells per well. […] Controls with medium containing 0.1% DMSO without test compounds were also included in each plate. […] Before LC-MS analysis of CoA levels, cells were harvested, counted, and collected in a 15 ml falcon tube and centrifuged at 200×g for 5 min at 4° C. Supernatant was removed and cell pellet was washed in 10 ml of ice-cold PBS. To further confirm that the numbers of cells in each sample were equivalent, an equal fraction of pellet was collected from each sample and subjected to protein determination analysis. After centrifugation and supernatant removal, the cell pellet was rapidly frozen in Liquid Nitrogen and stored at −80° C. until analysis.
Intracellular CoA levels were calculated considering an intracellular volume of 1 million cells=2 μl.
The 1*10^6 cellular pellet was extracted with 120 μl of aqueous 20% TFA.
100 μL samples of supernatant were dried under N2 at 20° C. in the dark.
Samples were re-dissolved in 100 μl of 10 mM NH4^+ AcO^− buffer pH 5.1+IS (Dextrorphan 50 ng/ml), stirred for 2 min, sonicated in ultrasonic bath for 1 min, then stirred again for 1 min, and injected into LC-MS.
LC-MS/MS was performed using an Agilent HPLC (1100 Series, USA). The LC system was interfaced with an API-4000 Q-Trap triple quadrupole mass spectrometer (AB Sciex, Toronto, Canada) equipped with a TurboIonSpray ionization source operating in positive ion mode. Analyst™ software version 1.6 (AB Sciex, Toronto, Canada) was used for data acquisition and processing. CoA was separated using a Luna C18 column (2.0×50 mm; 5 μm particle size), column at 25° C. and flow rate of 0.2 ml/min. Injection volume was 15 μl. The mobile phases consisted of water containing 10 mM ammonium acetate pH 7 (mobile phase A) and MeCN-2-propanol 9:1 (mobile phase B).
Results are expressed as fold increase in CoA levels relative to controls (using LC-MS quantification of free CoA).

[4] = Stability in human whole blood; format: in vitro ADME; conditions: 37° C., up to 60 min
Description: The stability of selected compounds in human whole blood was evaluated according to the following protocol. Compounds and positive control samples were dissolved in 100% DMSO at 3 mM (stock solution). To investigate the stability of the test compounds in whole blood, a 200 μM working solution (WS) in water has been prepared by adding 66.66 μl of each 3 mM stock solution to 933.34 μl of water (6.66% DMSO content). After pre-incubation of the whole blood at 37° C. for 5 min in an eppendorf, 10.5 μl of each working solution were spiked into 689.5 μl of heated blood. The obtained 3 μM solution in blood (0.1% DMSO content) was quickly stirred and 100 μl for each time point were transferred to an eppendorf. Each compound was tested in duplicate at five time points (10, 20, 30, 40 and 60 min). At each time point, the reaction was stopped by quenching the spiked blood (100 μl) with 400 μl of 100% acetonitrile containing 0.1% formic acid. Then samples were centrifuged at 15600 rpm for 15 min at +4° C. and 200 μl of supernatant were transferred to a 96-deepwell plate. Samples were evaporated under N2 and reconstituted in H2O/ACN 0.1% formic Acid (98/2 v/v) containing the appropriate internal standard. Analysis was performed without a calibration curve by using an Acquity-UPLC (Waters) coupled to a triple quadrupole mass spectrometer (SciexAPI4000). Time point 0 was obtained by adding 3 μL of each 200 μM working solution to 997 μL of the supernatant obtaining after centrifugation (15600 rpm for 15 min at +4° C.) of the blank matrix quenched with acetonitrile containing 0.1% formic acid.
as §3

[5] = Diastereoisomer A (upfield shift in 31P NMR), read-out: t1/2 (h) Human Hepatocytes Diastereoisomer A (converted)
[6] = Diastereoisomer A (upfield shift in 31P NMR), read-out: t1/2 (h) Mouse Hepatocytes Diastereoisomer A (converted)
[7] = Diastereoisomer A (upfield shift in 31P NMR), read-out: t1/2 (h) Human Plasma Diastereoisomer A (converted)
[8] = Diastereoisomer A (upfield shift in 31P NMR), read-out: t1/2 (h) Human Whole Blood Diastereoisomer A (converted)
[9] = Diastereoisomer B, read-out: t1/2 (h) Human Whole Blood Diastereoisomer B (converted)

SMILES	half-life at 5 μM [1, 5]	half-life at 5 μM [2, 6]	half-life at 3 μM [3, 7]	fold induction at 50 µM (PANK2−/− IMR32 cells)	half-life at 3 μM ([3]; Diastereoisomer B, read-out: t1/2 (h) Human Plasma Diastereoisomer B (converted))	half-life at 5 μM ([1]; Diastereoisomer B, read-out: t1/2 (h) Human Hepatocytes Diastereoisomer B (converted))	half-life at 3 μM [4, 8]	half-life at 3 μM [4, 9]	half-life at 5 μM ([2]; Diastereoisomer B, read-out: t1/2 (h) Mouse Hepatocytes Diastereoisomer B)
CC(=O)SCCNC(=O)CCNC(=O)[C@@H]1O[P@@](=O)(OCOC(=O)C(C)(C)C)OCC1(C)C [R1002, (((2S,4R)-4-((3-((2-(acetylthio)ethyl)amino)-3-oxopropyl)carbamoyl)-5,5-dimethyl-2-oxido-1,3,2-dioxaphosphinan-2-yl)oxy)methyl pivalate]	< 0.25 h	< 0.25 h	0.72 h						
CC(=O)SCCNC(=O)CCNC(=O)[C@@H]1OP(=O)(N[C@@H](C)C(=O)OCCc2ccccc2)OCC1(C)C (stereo partly drawn) [R1001, phenethyl ((4R)-4-((3-((2-(acetylthio)ethyl)amino)-3-oxopropyl)carbamoyl)-5,5-dimethyl-2-oxido-1,3,2-dioxaphosphinan-2-yl)-L-alaninate]			> 1 h	3.5	0.36 h				
CC(=O)SCCNC(=O)CCNC(=O)[C@@H]1OP(=O)(OCOC(=O)NCCOC(=O)C(C)(C)C)OCC1(C)C (stereo partly drawn) [R1008, 2-((((((4R)-4-((3-((2-(acetylthio)ethyl)amino)-3-oxopropyl)carbamoyl)-5,5-dimethyl-2-oxido-1,3,2-dioxaphosphinan-2-yl)oxy)methoxy)carbonyl)amino)ethyl pivalate]	0.29 h	< 0.25 h		41.2		< 0.25 h	0.5 h	0.23 h	< 0.25 h
CC(=O)SCCNC(=O)CCNC(=O)[C@@H]1OP(=O)(OCOC(=O)NCCSC(=O)C(C)(C)C)OCC1(C)C (stereo partly drawn) [R1023, S-(2-((((((4R)-4-((3-((2-(acetylthio)ethyl)amino)-3-oxopropyl)carbamoyl)-5,5-dimethyl-2-oxido-1,3,2-dioxaphosphinan-2-yl)oxy)methoxy)carbonyl)amino)ethyl) 2,2-dimethylpropanethioate]				17			0.31 h	0.17 h	
